“And” between values parts separate entries of the source, which are not always exact repeats. Equal values may be shown once. The source made the active and inactive calls.
Tests used:
Assay type in all cases: functional
[1] = molecular target: Sphingosine 1-phosphate receptor 2 (Homo sapiens, UniProt O95136); assay: Dose Response Cell Based Assay for Antagonists of the S1P2 Receptor. [Related pubchem assays: 856, 736 ]
[2] = molecular target: E3 ubiquitin-protein ligase Mdm2 (Homo sapiens, UniProt Q00987); assay: enhancers of MDM2-luciferase reporter signal, concentration-effect titration, project on inhibitors of MDM2 ubiquitin ligase, cellular assay, luminescent readout, 384-well plate format (AID 1394);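 note: MDM2 E3 inhibitors raise luminescence so EC50 is for signal enhancement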
Chain of E3 ubiquitin-protein ligase Mdm2 (Q00987 whole entry): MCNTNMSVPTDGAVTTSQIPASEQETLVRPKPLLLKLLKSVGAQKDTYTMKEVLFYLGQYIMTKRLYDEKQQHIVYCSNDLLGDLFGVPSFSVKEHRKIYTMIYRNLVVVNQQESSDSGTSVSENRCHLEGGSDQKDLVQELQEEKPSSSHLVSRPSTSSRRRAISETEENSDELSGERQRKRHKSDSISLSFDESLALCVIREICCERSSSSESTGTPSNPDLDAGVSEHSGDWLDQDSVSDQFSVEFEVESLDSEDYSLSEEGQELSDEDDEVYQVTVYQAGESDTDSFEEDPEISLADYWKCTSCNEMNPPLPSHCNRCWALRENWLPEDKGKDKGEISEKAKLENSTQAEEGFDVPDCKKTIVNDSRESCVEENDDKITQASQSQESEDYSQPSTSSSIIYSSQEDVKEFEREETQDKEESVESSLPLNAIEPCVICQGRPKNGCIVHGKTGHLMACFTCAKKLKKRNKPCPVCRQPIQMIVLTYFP

[3] = molecular target: T1, Tyrosine-protein phosphatase non-receptor type 7 (Homo sapiens, UniProt P35236); assay: inhibitors of human HePTP phosphatase, […], biochemical, absorbance, leukemia target (AID 521)
T1 sequence (P35236 whole entry): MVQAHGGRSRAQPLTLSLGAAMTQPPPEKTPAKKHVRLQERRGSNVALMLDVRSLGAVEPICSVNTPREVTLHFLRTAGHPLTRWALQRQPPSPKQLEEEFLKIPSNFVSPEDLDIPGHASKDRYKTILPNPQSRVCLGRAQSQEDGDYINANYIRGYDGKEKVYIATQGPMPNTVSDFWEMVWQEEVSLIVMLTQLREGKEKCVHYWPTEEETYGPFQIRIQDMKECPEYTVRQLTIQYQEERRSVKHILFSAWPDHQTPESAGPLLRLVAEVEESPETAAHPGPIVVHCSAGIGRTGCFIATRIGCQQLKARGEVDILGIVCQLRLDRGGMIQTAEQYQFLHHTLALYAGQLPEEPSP

[4] = molecular target: Diphosphomevalonate decarboxylase (Streptococcus pneumoniae serotype 2 (strain D39 / NCTC 7466), UniProt Q9FD53); assay: S. pneumoniae DPM-DC inhibition retest, confirmation, biochemical, cuvette format, coupled NADH fluorescence (AID 1028)
Chain of Diphosphomevalonate decarboxylase (Q9FD53 whole entry): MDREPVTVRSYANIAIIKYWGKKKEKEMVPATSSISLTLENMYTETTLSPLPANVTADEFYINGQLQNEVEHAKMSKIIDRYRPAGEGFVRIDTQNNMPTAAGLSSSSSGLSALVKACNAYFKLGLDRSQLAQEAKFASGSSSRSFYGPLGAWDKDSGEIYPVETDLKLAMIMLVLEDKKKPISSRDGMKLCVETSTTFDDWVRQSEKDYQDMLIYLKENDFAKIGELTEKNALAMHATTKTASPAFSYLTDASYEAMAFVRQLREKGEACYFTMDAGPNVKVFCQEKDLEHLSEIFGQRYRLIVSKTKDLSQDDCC

Chain of Sphingosine 1-phosphate receptor 2 (O95136 whole entry): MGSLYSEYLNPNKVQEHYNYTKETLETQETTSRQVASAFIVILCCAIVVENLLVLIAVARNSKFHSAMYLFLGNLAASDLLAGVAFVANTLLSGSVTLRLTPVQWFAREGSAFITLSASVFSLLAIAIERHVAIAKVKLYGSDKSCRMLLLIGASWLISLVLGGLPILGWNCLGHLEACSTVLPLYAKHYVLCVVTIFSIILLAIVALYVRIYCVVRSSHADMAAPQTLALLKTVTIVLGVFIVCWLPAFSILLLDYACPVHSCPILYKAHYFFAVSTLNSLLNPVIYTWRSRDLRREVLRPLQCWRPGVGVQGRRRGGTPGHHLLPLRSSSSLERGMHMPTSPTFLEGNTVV

O=C(Nc1ccc(F)cc1)c1sc2cc(C(F)(F)F)cnc2c1-c1cccs1
IC50 [1]: 2.73 µM (active) and 2.06 µM (active)

Cc1nn(-c2nnc(NCc3ccccc3)nn2)c(C)c1Br
EC50 [2]: 13.3 µM (not active)

O=C(CCSCCC(=O)NCc1ccco1)NCc1ccco1
IC50 [3]: 4.15 µM (active)

O=C(NCCN1CCCC1)c1ccc(-n2sc3ccccc3c2=O)cc1
IC50 [4]: 33 µM (active)
